Source: ChEMBL document CHEMBL5728127, “Diarylalkanes as potent inhibitors of binuclear enzymes” (2020)

What follows are compounds tested against T1, Polyphenol oxidase 1 (Agaricus bisporus, UniProt Q00024) (assay: Using this method, the conversion of L-Dopa, a substrate of tyrosinase, into dopachrome is followed by monitoring absorption at 450 nm. Tyrosinase was prepared in 50 mM potassium phosphate buffer, pH 6.8 (assay buffer) at 2000 U/ml and stored at −20° C. in 1 ml aliquots prior to use. For use in assays, stock enzyme solutions were thawed and diluted to 200 U/ml with assay buffer. A 2 mM working solution of substrate, L-DOPA, was prepared in assay buffer for each assay. Samples were dissolved in 10% DMSO (0.5 ml) and diluted to 5 ml with assay buffer. The reaction mixture consisted of 0.050 ml 2 mM L-DOPA, 0.050 ml 200 U/ml mushroom tyrosinase and 0.050 ml inhibitor. Reaction volume was adjusted to 200 μl with assay buffer. […] Average velocity was determined from linear enzyme rate as measured by change in absorbance (ΔA450) at 450 nm per minute.).
T1 sequence (Q00024 whole entry): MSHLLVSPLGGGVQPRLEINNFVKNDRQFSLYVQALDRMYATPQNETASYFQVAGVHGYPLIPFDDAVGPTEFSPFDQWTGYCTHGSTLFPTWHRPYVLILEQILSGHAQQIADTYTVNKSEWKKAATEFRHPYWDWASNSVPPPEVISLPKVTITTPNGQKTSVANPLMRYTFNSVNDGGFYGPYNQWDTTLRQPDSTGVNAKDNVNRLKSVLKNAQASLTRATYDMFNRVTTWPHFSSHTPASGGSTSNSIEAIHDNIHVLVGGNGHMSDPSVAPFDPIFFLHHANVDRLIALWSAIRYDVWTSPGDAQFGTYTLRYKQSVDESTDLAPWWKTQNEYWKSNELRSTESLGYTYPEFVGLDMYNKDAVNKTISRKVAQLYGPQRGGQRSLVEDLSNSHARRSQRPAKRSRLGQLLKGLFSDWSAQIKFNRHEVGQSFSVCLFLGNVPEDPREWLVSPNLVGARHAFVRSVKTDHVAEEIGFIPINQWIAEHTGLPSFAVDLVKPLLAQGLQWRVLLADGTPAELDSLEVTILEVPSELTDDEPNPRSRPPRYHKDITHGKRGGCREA
An IC50 of 0.24 µM was found for `COc1ccc(CCCc2ccc(O)cc2O)c(OC)c1C` in this work. An IC50 of 1200 µM was found for `COc1ccc(CCC(O)c2c(O)cc(O)cc2O)cc1O` (stereo unspecified) in this work. An IC50 of 375 µM was found for `COc1cc(O)c(C(O)CCc2ccc(O)c(OC)c2)c(OC)c1` (stereo unspecified) in this work. An IC50 of 0.7 µM was found for `Oc1ccc(C(O)CCc2ccccc2O)c(O)c1` (stereo unspecified) in this work. An IC50 of 77 µM was found for `COc1ccc(CC(O)c2ccc(O)cc2O)cc1` (stereo unspecified) in this work. An IC50 of 1000 µM was found for `Oc1ccc(C(O)Cc2ccc(Cl)cc2Cl)c(O)c1` (stereo unspecified) in this work. An IC50 of 305 µM was found for `Oc1ccc(CCC(O)c2ccc(O)cc2)cc1` (stereo unspecified) in this work. An IC50 of 24 µM was found for `COc1ccc(O)c(CCCc2ccc(O)cc2OC)c1` in this work. An IC50 of 8 µM was found for `Nc1ccc(CCC(O)c2c(O)cc(O)cc2O)cc1` (stereo unspecified) in this work. An IC50 of 1000 µM was found for `COc1ccc(CCC(O)c2cc(OC)ccc2O)c(OC)c1` (stereo unspecified) in this work. An IC50 of 700 µM was found for `CC(Cc1ccc(O)c(O)c1)C(C)Cc1ccc(O)c(O)c1` (stereo unspecified) [NORDIHYDROGUAIARETIC ACID] in this work.
